Source: PubChem BioAssay (NCI)
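Values below derive from 48-hour exposures of cells grown in 96-well plates, with endpoints linearly interpolated between the two concentrations bracketing the appropriate inhibition level. GI50 marks 50% less growth. Definition used: TGI = concentration required for complete inhibition of growth.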

Each compound was assayed on IGROV1 ovarian (assay: growth of human tumour cells (NCI), 48 h).

Structure (SMILES) | GI50 [µM] | TGI [µM]
O=C1c2ccccc2C(=O)c2c(NCCN=Cc3ccccc3O)cccc21 | 2.57 | 10.3
Oc1ccc(/C=C/c2cc(O)cc3c2C(c2cc(O)cc(O)c2)C(c2ccc(O)c(O)c2)O3)cc1 (stereo not given) | – | > 100
CC1(C)N=C(N)N=C(N)N1c1cccc(OCCOc2cccc([N+](=O)[O-])c2)c1 | 0.565 | > 100
COc1ccc(/C=C/c2cnccn2)cc1OC | – | > 10
O=C(NC1CCCCC1)c1ccc(Nc2ncnc3c2cnn3-c2ccccc2)cc1 | 14.4 | 65.9
C=CCn1c(SCC(=O)Nc2ccc(C(=O)/C=C/c3cc(OC)c(OC)c(OC)c3)cc2)nnc1-c1ccc(OC)cc1 | 0.324 | 1.9
C=C1C(O)C2C(=C(C)C13CC3)C(=O)C(C)(C)C2OC (stereo not given) | > 100 | > 100
COc1cc(C(=O)O[C@H](C(N)=O)[C@]2(C)CO2)c2cccc(C)c2c1 | < 0.01 | 0.0567
NCCCOc1cc(Cl)ccc1NC(=O)c1cc2ccccc2cc1OCCCN | 0.678 | 2.28

What follows are compounds tested on SK-MEL-28 melanoma (assay: growth of human tumour cells (NCI), 48 h).

Structure (SMILES) | GI50 [µM] | TGI [µM]
COc1ccc(-c2nn(-c3cccc(Cl)c3)cc2-c2nc(N)[nH]c(=O)c2C#N)cc1 | 4.98 | 27.9
O=C(CCN1CCOCC1)Nc1cccc(-n2cc(-c3ccncc3)c(-c3ccc(Cl)c(O)c3)n2)c1 | 1.53 | 3.33
C=C(C)[C@@H]1CC[C@]2(C)[C@H](CC[C@@H]3[C@@H]([C@@](C)(O)CCC=C(C)C)CC[C@]32C)[C@@]1(C)CCC(=O)O | 16.3 | 30.3
Cn1cc(S(=O)(=O)N2CCC3=Cc4c(cnn4-c4ccc(F)cc4)C[C@]3(C(=O)c3cc(C(F)(F)F)ccn3)C2)cn1 | > 100 | > 100
c1ccc(NCCSc2nc3ccccc3s2)cc1 | – | > 100
Oc1ccc(Oc2cnc3ccccc3n2)cc1 | > 100 | > 100
Cc1ccc2occ/c(=N\Nc3ccccc3)c2c1 | – | > 100
CC(=O)NC1CONC1=O (stereo not given) | – | > 100
Oc1ccc(N=Nc2nccs2)c(O)c1 | 10.4 | 30.7
COc1cc(/C=C/C(=O)Oc2ccccc2)ccc1C(=O)O/C=C/c1ccccc1 | – | > 100
COc1ccc(-c2noc(N)c2-c2cc(OC)c3c(c2)OCO3)cc1 | 6.31 | > 100
CC(Cl)CN1c2ccccc2Sc2ccc(Cl)cc21 (stereo not given) | – | > 10
NCCCn1c2c(c3ccccc3c1=O)C(=O)c1ccccc1-2 | 0.842 | 3.03
O=C1c2ccccc2C(=O)c2c(NCCN=Cc3ccccc3O)cccc21 | 3.21 | 10.4
Oc1ccc(/C=C/c2cc(O)cc3c2C(c2cc(O)cc(O)c2)C(c2ccc(O)c(O)c2)O3)cc1 (stereo not given) | – | > 100
CC1(C)N=C(N)N=C(N)N1c1cccc(OCCOc2cccc([N+](=O)[O-])c2)c1 | 7.86 | > 100
COc1ccc(/C=C/c2cnccn2)cc1OC | – | > 10
O=C(NC1CCCCC1)c1ccc(Nc2ncnc3c2cnn3-c2ccccc2)cc1 | 3.79 | > 100
C=CCn1c(SCC(=O)Nc2ccc(C(=O)/C=C/c3cc(OC)c(OC)c(OC)c3)cc2)nnc1-c1ccc(OC)cc1 | 0.709 | 73.8
C=C1C(O)C2C(=C(C)C13CC3)C(=O)C(C)(C)C2OC (stereo not given) | > 100 | > 100
COc1cc(C(=O)O[C@H](C(N)=O)[C@]2(C)CO2)c2cccc(C)c2c1 | 0.0744 | 1.7
NCCCOc1cc(Cl)ccc1NC(=O)c1cc2ccccc2cc1OCCCN | 1.81 | 3.23

Each compound was assayed on DU-145 prostate (assay: growth of human tumour cells (NCI), 48 h).

Structure (SMILES) | GI50 [µM] | TGI [µM]
COc1ccc(-c2nn(-c3cccc(Cl)c3)cc2-c2nc(N)[nH]c(=O)c2C#N)cc1 | 17.9 | 70.1
O=C(CCN1CCOCC1)Nc1cccc(-n2cc(-c3ccncc3)c(-c3ccc(Cl)c(O)c3)n2)c1 | 2.49 | 11.7
C=C(C)[C@@H]1CC[C@]2(C)[C@H](CC[C@@H]3[C@@H]([C@@](C)(O)CCC=C(C)C)CC[C@]32C)[C@@]1(C)CCC(=O)O | 16.7 | 32.4
Cn1cc(S(=O)(=O)N2CCC3=Cc4c(cnn4-c4ccc(F)cc4)C[C@]3(C(=O)c3cc(C(F)(F)F)ccn3)C2)cn1 | > 100 | > 100
c1ccc(NCCSc2nc3ccccc3s2)cc1 | – | > 100
Oc1ccc(Oc2cnc3ccccc3n2)cc1 | > 100 | > 100
Cc1ccc2occ/c(=N\Nc3ccccc3)c2c1 | – | > 100
CC(=O)NC1CONC1=O (stereo not given) | – | > 100
Oc1ccc(N=Nc2nccs2)c(O)c1 | 5.23 | 17.1
COc1cc(/C=C/C(=O)Oc2ccccc2)ccc1C(=O)O/C=C/c1ccccc1 | – | > 100
COc1ccc(-c2noc(N)c2-c2cc(OC)c3c(c2)OCO3)cc1 | 3.42 | > 90.9
CC(Cl)CN1c2ccccc2Sc2ccc(Cl)cc21 (stereo not given) | – | > 10
NCCCn1c2c(c3ccccc3c1=O)C(=O)c1ccccc1-2 | 0.118 | 3.71
O=C1c2ccccc2C(=O)c2c(NCCN=Cc3ccccc3O)cccc21 | 2.22 | 7.66
Oc1ccc(/C=C/c2cc(O)cc3c2C(c2cc(O)cc(O)c2)C(c2ccc(O)c(O)c2)O3)cc1 (stereo not given) | – | > 100
CC1(C)N=C(N)N=C(N)N1c1cccc(OCCOc2cccc([N+](=O)[O-])c2)c1 | 4.38 | > 100
COc1ccc(/C=C/c2cnccn2)cc1OC | – | > 10
O=C(NC1CCCCC1)c1ccc(Nc2ncnc3c2cnn3-c2ccccc2)cc1 | 10.6 | 48.1
C=CCn1c(SCC(=O)Nc2ccc(C(=O)/C=C/c3cc(OC)c(OC)c(OC)c3)cc2)nnc1-c1ccc(OC)cc1 | 0.453 | 16
C=C1C(O)C2C(=C(C)C13CC3)C(=O)C(C)(C)C2OC (stereo not given) | > 100 | > 100
COc1cc(C(=O)O[C@H](C(N)=O)[C@]2(C)CO2)c2cccc(C)c2c1 | < 0.017 | 0.0928
NCCCOc1cc(Cl)ccc1NC(=O)c1cc2ccccc2cc1OCCCN | 1.58 | 2.95
